Like-named read-outs stand apart in the source and are kept apart here.
What was measured:
[1] = target: T1, human recombinant GST-PAK1-KD protein (Homo sapiens, UniProt Q13153); experiment: GST-PAK1-KD (kinase domain) biochemical assay, microfluidic mobility shift
T1 construct: residues #249-545 of human PAK1, UniProtKP/Swiss Q13153; His6 (N); made in house; host or cells: Sf9 insect cells, pAcGP67 baculovirus expression vector

[2] = tested on: group I PAKs (PAK1-3) in EBC1 cells, MEK1 phosphorylation at S298; experiment: Cellular PAK assay: MEK1 (S298) phosphorylation in EBC1 cells, HTRF; type: cell-based; settings: Homo sapiens, EBC-1, 2 h treatment, Example 66
Protocol: Group I PAKs (PAK1-3) are activated upon binding to the Rho GTPases, Rac1 and Cdc42. […] The inhibition of group I PAKs in EBC1 cells is assessed by detecting changes in the level of MEK1 phosphorylation at S298 using homogenous time-resolved fluorescence (HTRF). […] Following inhibitor treatment, cells were lysed with 25 μL of 1× cellular kinase lysis buffer (Cisbio) containing 1× cellular kinase blocking reagent (Cisbio). Cellular lysis was carried out at 4° C. for 2 h with constant shaking before lysate (16 μL) was transferred to white 384-well ProxiPlates™ (Perkin Elmer).

[3] = GST-PAK1-KD Inhibition Assay - Example 65, read-out: PAK1 inhibition Ki
[4] = Table II, PAK1 Ki class, read-out: Ki

T1 sequence (Q13153 249-545): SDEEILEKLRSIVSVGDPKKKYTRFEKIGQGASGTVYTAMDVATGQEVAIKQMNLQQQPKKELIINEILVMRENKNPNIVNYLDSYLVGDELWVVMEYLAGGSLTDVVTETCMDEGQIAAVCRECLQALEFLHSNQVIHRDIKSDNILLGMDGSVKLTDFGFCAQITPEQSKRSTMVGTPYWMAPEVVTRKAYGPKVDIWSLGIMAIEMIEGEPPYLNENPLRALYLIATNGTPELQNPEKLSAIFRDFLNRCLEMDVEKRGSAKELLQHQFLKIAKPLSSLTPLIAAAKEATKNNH

| SMILES | Ki [1, 3] [nM] | Ki [1, 4] [nM] | IC50 [2] [nM] |
| --- | --- | --- | --- |
| CCN(Cc1ccc2[nH]cnc2c1Cl)c1nccc(Nc2cc([C@@H]3C[C@@H]3F)[nH]n2)n1 [II-51, N^2-((4-chloro-1H-benzo[d]imidazol-5-yl)methyl)-N^2-ethyl-N^4-(5-((1S,2S)-2-fluorocyclopropyl)-1H-pyrazol-3-yl)pyrimidine-2,4-diamine] | 2.5 | < 50 | 66.1 |
| CC(CO)N(Cc1cc(F)cc2[nH]ncc12)c1nccc(Nc2cc(C3CC3)[nH]n2)n1 (stereo not drawn) [II-56, 2-((4-((5-cyclopropyl-1H-pyrazol-3-yl)amino)pyrimidin-2-yl)((6-fluoro-1H-indazol-4-yl)methyl)amino)propan-1-ol] | 4.2 | < 50 | 70.8 |
| Fc1cc(CN(CCN2CCCC2)c2nccc(Nc3cc(C4CC4)[nH]n3)n2)c2cn[nH]c2c1 [II-59, N^4-(5-cyclopropyl-1H-pyrazol-3-yl)-N^2-((6-fluoro-1H-indazol-4-yl)methyl)-N^2-(2-(pyrrolidin-1-yl)ethyl)pyrimidine-2,4-diamine] | 6 | < 50 | 257 |
| CN(Cc1ccc2[nH]cnc2c1Cl)c1nccc(Nc2cc(C(F)F)[nH]n2)n1 [II-81, N^2-((4-chloro-1H-benzo[d]imidazol-5-yl)methyl)-N^4-(5-(difluoromethyl)-1H-pyrazol-3-yl)-N^2-methylpyrimidine-2,4-diamine] | 19.7 | < 50 | 235 |
| COCCN(Cc1cc(F)cc2[nH]ncc12)c1nccc(Nc2cc(C3CC3)[nH]n2)n1 [II-94, N^4-(5-cyclopropyl-1H-pyrazol-3-yl)-N^2-((6-fluoro-1H-indazol-4-yl)methyl)-N^2-(2-methoxyethyl)pyrimidine-2,4-diamine] | 36.8 | < 50 | 64.1 |
| CN(Cc1ccc2[nH]cnc2c1)c1nc(Nc2cc(C3CC3)[nH]n2)cc(C(C)(C)O)n1 [II-97, 2-[2-[(1H-Benzoimidazol-5-ylmethyl)-methyl-amino]-6-(5-cyclopropyl-1H-pyrazol-3-ylamino)-pyrimidin-4-yl]-propan-2-ol] | 41.7 | < 50 | 1700 |

Continued, values first:

| Ki [1, 3] [nM] | Ki [1, 4] [nM] | IC50 [2] [nM] | SMILES |
| --- | --- | --- | --- |
| 41.3 | < 50 | 339 | Cc1n[nH]c2cc(Cl)cc(CNc3ncc(F)c(Nc4cc(C5CC5)[nH]n4)n3)c12 [II-24, N^2-((6-Chloro-3-methyl-1H-indazol-4-yl)methyl)-N^4-(5-cyclopropyl-1H-pyrazol-3-yl)-5-fluoropyrimidine-2,4-diamine] |
| 97.9 | 50 to 250 | 648 | CCOc1cc(Nc2ccnc(N(C)Cc3ccc4[nH]cnc4c3Cl)n2)n[nH]1 [II-33, N^2-((4-Chloro-1H-benzo[d]imidazol-5-yl)methyl)-N^4-(5-ethoxy-1H-pyrazol-3-yl)-N^2-methylpyrimidine-2,4-diamine] |
| 165 | 50 to 250 | 1900 | CN(Cc1ccc2nc[nH]c2c1Cl)c1nccc(Nc2cc(CCC#N)[nH]n2)n1 [II-45, 3-(3-(2-(((4-Chloro-3H-benzo[d]imidazol-5-yl)methyl)(methyl)amino)pyrimidin-4-ylamino)-1H-pyrazol-5-yl)propanenitrile] |
| 13 | < 50 | 419 | CN(C)CCN(Cc1cc(F)cc2[nH]ncc12)c1nccc(Nc2cc([C@@H]3C[C@@H]3F)[nH]n2)n1 [II-73, N^2-(2-(dimethylamino)ethyl)-N^2-((6-fluoro-1H-indazol-4-yl)methyl)-N^4-(5-((1S,2S)-2-fluorocyclopropyl)-1H-pyrazol-3-yl)pyrimidine-2,4-diamine] |
| 13.6 | < 50 | 189 | COc1cc(CNc2nccc(Nc3cc(C4CC4)[nH]n3)n2)c2cn[nH]c2c1 [II-74, N^4-(5-cyclopropyl-1H-pyrazol-3-yl)-N^2-((6-methoxy-1H-indazol-4-yl)methyl)pyrimidine-2,4-diamine] |
| 63.3 | 50 to 250 | 1500 | COCCc1cc(Nc2ccnc(N(C)Cc3ccc4[nH]cnc4c3Cl)n2)n[nH]1 [II-102, N^2-((4-chloro-1H-benzo[d]imidazol-5-yl)methyl)-N^4-(5-(2-methoxyethyl)-1H-pyrazol-3-yl)-N^2-methylpyrimidine-2,4-diamine] |
